From article PMC4246079, “Structure and Mechanism of the Bifunctional CinA Enzyme from Thermus thermophilus” (The Journal of Biological Chemistry, 2014)

Legend:
TtCinA [1] = molecular target: T1, TtCinA (Thermus thermophilus, UniProt Q5SHB0); test: X-ray crystal structure ([…] Å; crystal soak); turnover to AMP also seen by HPLC; format: binding; conditions: ADPR site of COG1058 domain, both open and closed sites; 5 mM MgCl2, 25 mM ligand, Mg2+ bound; HPLC assay with 1 mM ADP-ribose, 4 mM CoCl2, 100 mM KCl, pH 8.0, 50 °C
T1 construct: gene TTHA1820; full-length, N-terminal His6 tag with thrombin site (pET28a, thrombin-treated), expressed in E. coli T7 Express; asymmetric homodimer (~72 kDa by SEC, 86 kDa predicted dimer)

TtCinA [2] = molecular target: T1, TtCinA; test: X-ray crystal structure ([…] Å; crystal soak); format: binding; conditions: ADPR site of COG1058 domain, open site only, weaker density; 5 mM MgCl2, 25 mM ligand (AMP/ribose 5-phosphate), Mg2+ bound
TtCinA [3] = molecular target: T1, TtCinA; test: X-ray crystal structure ([…] Å; crystal soak); format: binding; conditions: ADPR site of COG1058 domain, both sites; 5 mM MgCl2, 25 mM ligand, Mg2+ bound; no hydrolysis seen
TtCinA [4] = molecular target: T1, TtCinA; test: X-ray crystal structure ([…] Å; crystal soaked with NMN); format: binding; conditions: NMN deamidase site; built as product NCN by presumption, density could not distinguish NMN from NCN; 5 mM MgCl2, 25 mM NMN soak
TtCinA [5] = molecular target: T1, TtCinA; test: reverse-phase HPLC of conversion to NCN; format: biochemical; conditions: NMN deamidase; 1 mM NMN, 100 μg enzyme per ml, 25 mM Tris-HCl pH 8.0, 100 mM NaCl, 37 °C, 15 min

T1 sequence (Q5SHB0 entry or part of it): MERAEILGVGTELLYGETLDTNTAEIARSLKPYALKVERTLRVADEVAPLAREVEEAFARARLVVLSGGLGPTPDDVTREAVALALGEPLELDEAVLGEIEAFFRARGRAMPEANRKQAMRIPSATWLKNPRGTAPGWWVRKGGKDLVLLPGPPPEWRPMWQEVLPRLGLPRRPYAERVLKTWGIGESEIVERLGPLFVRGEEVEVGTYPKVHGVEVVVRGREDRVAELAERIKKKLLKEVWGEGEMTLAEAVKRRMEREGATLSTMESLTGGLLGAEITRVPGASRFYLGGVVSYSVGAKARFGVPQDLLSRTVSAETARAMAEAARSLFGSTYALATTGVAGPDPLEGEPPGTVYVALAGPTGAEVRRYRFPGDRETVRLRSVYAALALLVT

SMILES: Nc1ncnc2c1ncn2[C@@H]1O[C@H](COP(=O)(O)OP(=O)(O)OC[C@H]2OC(O)[C@H](O)[C@@H]2O)[C@@H](O)[C@H]1O (some centres unmarked) [ADP-ribose]
- X-ray crystal structure (1.99 Å; crystal soak); turnover to AMP also seen by HPL (TtCinA [1]): ADP-ribose and ATP data sets produced clear difference density in both catalytic sites

SMILES: Nc1ncnc2c1ncn2[C@@H]1O[C@H](COP(=O)(O)O)[C@@H](O)[C@H]1O [AMP]
- X-ray crystal structure (1.98 Å; crystal soak) (TtCinA [2]): it was possible to model in an AMP molecule in one of the two active sites

SMILES: Nc1ncnc2c1ncn2[C@@H]1O[C@H](COP(=O)(O)OP(=O)(O)OP(=O)(O)O)[C@@H](O)[C@H]1O [ATP]
- X-ray crystal structure (2.21 Å; crystal soak) (TtCinA [3]): ATP binds in a very similar conformation to ADP-ribose

SMILES: O=C([O-])c1ccc[n+]([C@@H]2O[C@H](COP(=O)(O)O)[C@@H](O)[C@H]2O)c1 [NCN, nicotinate mononucleotide]
- X-ray crystal structure (2.46 Å; crystal soaked with NMN) (TtCinA [4]): it was not possible to distinguish NMN from the product, NCN

SMILES: NC(=O)c1ccc[n+]([C@@H]2O[C@H](COP(=O)([O-])O)[C@@H](O)[C@H]2O)c1 [NMN, nicotinamide mononucleotide]
- reverse-phase HPLC of conversion to NCN (TtCinA [5]): NMN showed rapid conversion to NCN product in the presence of TtCinA
